Row | SMILES | melting point [°C]
1 | C[C@@H]1CN(Cc2ccccc2)C[C@H]1C(=O)NC1CC1 (relative stereo) | 81 to 83
2 | Fc1ccc(Cl)c2sc(CBr)cc12 | 89 to 90
3 | CC(C)CCS(=O)(=O)c1cccc(-c2nc(=O)c3ccccc3s2)n1 | 146 to 147
4 | CN(C)C(=O)Oc1cccc2c1CN(Nc1ccncc1)C2 | 183 to 185
5 | CCc1ncc2c3c(ccc2n1)OCC(CN1CC=C(c2c[nH]c4ccccc24)CC1)O3 (stereo unspecified) | 203 to 211
6 | COC1CC(OC)(OC)C(=O)O1 (stereo unspecified) | 55
7 | Cc1cc(=O)[nH]c2nc(CCCCCN3CCN(c4cccc(Cl)c4Cl)CC3)ccc12 | 195 to 196
8 | CC(C)CC(C(=O)O)c1cc(OCC2CC2)c(-c2ccc3nonc3c2)cc1F (stereo unspecified) | 110 to 111
9 | Cc1cc(Cl)ccc1-n1c(CF)nc2ccc(N)cc2c1=O | 191 to 193
10 | COCCN1CC(c2ccccc2)NC1=O (stereo unspecified) | 82 to 83
11 | O=C(NCC1CCCCC1)c1c(Cl)ccc2nc(CCCCc3nnn[nH]3)ccc12 | 90 to 93
12 | CCC12CCC(NC(=O)C=CC(=O)OC)C3Oc4c(O)ccc5c4C31CCN(CC1CC1)C2C5 (stereo unspecified) | 233 to 236
13 | O=C(O)C(O)(c1ccccc1)c1ccc(Br)cc1 (racemic) | 125 to 126
14 | COC1(c2cc(F)cc(OCc3nc(-c4ccccc4)c(-c4ccc(S(N)(=O)=O)cc4)o3)c2)CCOCC1 | 70 to 80
15 | Nc1nc(Cl)cc(CF)n1 | 159
16 | NC(=O)NN=Cc1ccc(Oc2ccc3c(c2)OCO3)cc1 | 225 to 226
17 | Cc1oc(COc2ccc(/C=C/C=O)cc2)nc1-c1ccccc1 | 144 to 146
18 | COc1ccc(CCOc2cccc(-c3cccc(C(=O)NCCN4CCCC4)c3)n2)cc1OC | 126 to 127
19 | Fc1ccc2c(c1)C(=C1CCNCC1)c1ccccc1C=C2 | 161
20 | O=C(O)c1cnc2cc(I)ccc2n1 | 242 to 244
21 | CCC(=O)N1CCNC1=Nc1ccc(Cl)cc1Cl | 126 to 128
22 | CC(=O)c1c(N)ncn1C1c2ccccc2CC1(C)C (stereo unspecified) | 174 to 175
23 | CCOC(=O)c1cc2cc(C3=NNC(=O)CC3)ccc2[nH]1 | 235 to 237
24 | COC(=O)C(=O)c1ccc(OCCOc2ccc(Oc3ccccc3)cc2)cc1 | 97 to 98
25 | O=C(c1ccc(F)cc1)C1CCN(Cc2ccc3ccccc3c2)CC1 | 131 to 134
26 | O=C(/C=C/C=C(c1cccc([N+](=O)[O-])c1)c1cccc([N+](=O)[O-])c1)NCCCCc1cccnc1 | 158 to 159

Row | SMILES | melting point [°C]
27 | Cc1csc2c(Br)c(C=O)sc12 | 127 to 129
28 | CCn1c2ccccc2c2oc(C(N)=O)cc(=O)c21 | 224 to 226
29 | CCC1Cc2ccc(C(C)C(=O)O)cc2C1=O (stereo unspecified) | 85 to 86
30 | CCCCC/C(=C/C=C/C(=O)Oc1ccc([N+](=O)[O-])cc1)c1cccc(F)c1 | 50 to 51
31 | Cc1ccc(S(=O)(=O)NCC(CC(=O)Nc2ccc(C(=O)O)cc2)c2ccccc2)cc1 (stereo unspecified) | 225 to 227
32 | O=C(N[C@H](Cc1ccc(F)cc1)C(=O)N1CCC(O)CC1)c1cc2ccccc2[nH]1 | 204 to 207
33 | Oc1cc(F)ccc1Oc1ccc(-c2ccco2)cc1O | 102 to 104
34 | COC(C)CNS(=O)(=O)c1cc(C2(O)CCC(=O)N2C)ccc1Cl (stereo unspecified) | 124 to 126
35 | CSc1ccc2c(c1)CN(C(C)C)S(=O)(=O)N2CCCl | 74 to 75
36 | Cc1c(N)ccc2c(O)c(C(=O)NCc3ccc(Cl)cc3)cnc12 | 256 to 258
37 | Cc1c(-c2ccc(C3CCCCC3)cc2)nc2ccc(F)cc2c1C(=O)O | 316 to 323
38 | OC1CCc2cccc(Nc3cc(-c4ccc(C(F)(F)F)cc4)ncn3)c2C1 (stereo unspecified) | 178 to 179
39 | CCc1c(Oc2c(Cl)cc(C(F)(F)F)cc2Cl)n[nH]c1C | 215 to 218
40 | c1nnc2c3c(c(NCCCN4CCCC4)nn12)CCCC3 | 169 to 171
41 | CCCc1ccc(C=NN=Cc2ccc(F)cc2)cc1 | 70.5
42 | CC(=O)N1CCC(CCCC(=O)c2ccc(F)cc2)CC1 | 77 to 78
43 | O=C(NNc1ccc(Cl)cc1Cl)C(F)(F)F | 127 to 128
44 | Cc1cc2cc(O)ccc2c(Oc2ccc(/C=C/C(=O)O)cc2)c1-c1ccc(O)cc1 | 162 to 164
45 | COC(=O)c1cc(Oc2ccc(Cl)c(C)c2)ccc1[N+](=O)[O-] | 85 to 87
46 | COc1ccc(C(=O)Nc2c(Cl)cncc2Cl)c2c3cc(Cl)ccc3n(Cc3ccc(F)cc3)c12 | 249 to 250
47 | O=C(N1CCc2ccc(S(=O)(=O)F)cc2C1)C(F)(F)F | 99 to 103
48 | Cc1cnc(C#N)n1Cc1ccccc1 | 51.5 to 52.5
49 | CC1CN(CC(=O)c2ccccc2)c2nc(-c3ccncc3)cc(=O)n2C1 (stereo unspecified) | 202 to 203
50 | CNC(=S)NCCSCc1[nH]cnc1C | 150 to 152
51 | COc1ccc(C(=Cc2c(Cl)cncc2Cl)c2ccccc2)cc1OC1CCCC1 | 138 to 140
52 | CS(=O)(=O)c1ccc(Oc2ccc(C#N)cc2)nc1 | 195 to 196

Row | SMILES | melting point [°C]
53 | Cn1cc(SC(C)(C)C)c(=O)c(-c2ccc(Cl)c(C(F)(F)F)c2)c1 | 138 to 142
54 | COc1ccc2c(c1)N(CC#N)CCO2 | 73 to 74
55 | Cc1ccc(-c2c(C(=O)NCc3ccccc3)n(CC[C@@H](C)CO)c(=O)c3ncccc23)cc1 | 226 to 227
56 | Cn1ccc2c1CCn1ccnc1C2=C1CCN(C2CCN(C(=O)c3cc(C(F)(F)F)cc(C(F)(F)F)c3)C(Cc3ccccc3)C2)CC1 (stereo unspecified) | 133
57 | Cn1cc(C(=O)NCc2ccc(Cl)cc2)c(=O)c2cc(CN=[N+]=[N-])ccc21 | 219 to 220
58 | CCOC(=O)c1cnc2c3cc(OC)c(OC)cc3ccn2c1=O | 264 to 265
59 | O=C(CCc1ccccc1)NC1CCC(=O)N2CCCC(C(=O)NC3CC(=O)OC3OCc3ccccc3)N2C1=O (stereo unspecified) | 92 to 94
60 | CC(=C1SC(=O)NC1=O)c1ccc(OCCCOc2c(-c3ccc(F)cc3)n(C)c3ccccc3c2=O)cc1 | 262 to 264
61 | O=Cc1ccnc2ccc(-c3ccccc3)cc12 | 115
62 | CCOCc1nc2c(N)nc3cc(-c4cccnc4)ccc3c2n1CC(O)CO (stereo unspecified) | 202 to 204
63 | CN1CCN(c2n[nH]c(=S)n2C2CCc3ccccc3C2)CC1 (stereo unspecified) | 217 to 218
64 | Nc1ccc(C(=S)SCCO)cc1 | 87.5 to 89.5
65 | C1=CNc2ccccc2C=N1 | 165 to 167
66 | O=C(O)CCCCCCCCCCOc1ccccc1OCc1ccccc1 | 62 to 63
67 | O=C(Oc1ccccc1)c1ccc(N(Cc2ccccc2)Cc2ccccc2)cc1Cl | 133 to 135
68 | CCN(CC)CCNC(=O)c1cnc2ccc(I)cc2c1F | 88 to 90
69 | CN(C(=O)c1cccc(F)c1[Si](C)(C)C)C(C)(C)C | 32 to 35
70 | C=CCOC(=O)c1cc(C23CC4CC(CC(C4)C2)C3)c(OC)cc1F | 101 to 102
71 | NC(=O)n1nc(-c2ccco2)cc1N | 145
72 | Cc1c(Cl)nnc2c1CN(C(=O)c1ccccc1F)CC2 | 151 to 153
73 | N#CN1CCC(c2nn(-c3ccccc3F)c3ccccc23)CC1 | 119 to 121
74 | Cc1cccc(OCC2=NCCN2C(=O)Nc2ccccc2)c1C | 150 to 152
75 | Cc1nn(-c2cc(OC(C)C)c(Cl)cc2Cl)c(C)c1C | 56 to 58
76 | Cc1nc2n(c1CN(C)C)-c1ccc(Cl)cc1C(c1ccccc1Cl)=NC2 | 191 to 194
77 | C=Cc1cccc2[nH]c(C(=O)O)cc(=O)c12 | 265 to 266
78 | CCCCOC(=O)NC1C(=O)N(OCC(=O)OC(c2ccccc2)c2ccccc2)C1C (stereo unspecified) | 105 to 108

Row | SMILES | melting point [°C]
79 | Cc1noc(-c2ncn3c2CN(C)C(=O)c2cc(F)ccc2-3)n1 | 244 to 245
80 | O=c1c(Cl)c(OCc2ccc(Cl)cc2)cnn1-c1ccc(Cl)cn1 | 167 to 169
81 | CSc1ccc(-n2c(-c3cccnc3)nc(SC)c(C#N)c2=O)cc1 | 212 to 215
82 | CCC12CCC3C4CCC(=O)C=C4CCC3C1CCC2OC(=O)c1ccccc1 (stereo unspecified) | 141 to 149
83 | COc1ccc(-n2nc(O)c3c(=O)c4ccc(Cl)cc4[nH]c3c2=O)cc1Cl | 395 to 396
84 | CCOCCOc1ccc(-c2ccc3c(c2)C=C(C(=O)Nc2ccc(CN(C)C4CCOCC4)cc2)CCS3(=O)=O)cc1OCC | 164 to 168
85 | CCOC(=O)c1csc2cc(OC)ccc12 | 68 to 69
86 | O=C(c1ccncc1)c1cc(-c2ccncc2)c(N2CCOCC2)s1 | 124
87 | O=C(O)CCc1cc2cc(Cl)ccc2n1S(=O)(=O)c1ccc2ncsc2c1 | 96 to 100
88 | CCCC#Cc1ccnc2c1c(C(C)=O)cn2S(=O)(=O)c1ccccc1 | 134 to 136
89 | Cc1ccc(C#N)nc1 | 72 to 74
90 | Cc1c(-c2ccccc2)c(N2CC[C@H](N(C)C)C2)c2oc(-c3ccccc3[N+](=O)[O-])nc2c1C#N | 139 to 142
91 | CC(C)(C)OC(=O)N1CCC(N(Cc2ccccc2)S(N)(=O)=O)CC1 | 140 to 142
92 | Cc1cc(N2CC=C(C(=O)OC(C)C)CC2)c2cccc(-c3ccc(Cl)cc3Cl)c2n1 | 131 to 133
93 | CCCc1c(OCCCOc2ccc(NC(=O)c3nnn[nH]3)cc2)ccc(C(C)=O)c1O | 200 to 202
94 | N#CC1=Nc2nc(C3CCCC3)[nH]c2C2=N[C@H](Cc3ccccc3)CN12 | 140 to 142
95 | CC(C)(C)OC(=O)Nc1ccc(-c2ccccc2F)cc1NC(=O)CC(=O)c1cccc([N+](=O)[O-])c1 | 167
96 | CCOC(=O)Nc1cc(F)cc(CCCCC(=O)O)c1 | 136 to 137
97 | Cc1noc(NS(=O)(=O)c2ccccc2-c2ccc(-c3ccccn3)cc2)c1C | 85 to 90
98 | N#Cc1cc(C(F)(F)F)[nH]c1-c1ccsc1Br | 170
99 | COC(=O)c1cccc(OS(N)(=O)=O)c1 | 145 to 146
100 | COC(=O)c1cc(COc2c(OC)c3cocc(OC)c-3c2C(C)=O)ccc1COc1c(OC)c2cocc(OC)c-2c1C(C)=O | 87 to 89
101 | CCOC(=O)c1cn(CC)c2nc(C=O)c(O)cc2c1=O | 243 to 245

From a melting point compilation (Tetko et al.; mined from patent text by program, amines drawn as free bases though some values may be those of a salt)
